Test results taken from US20120020915A1, “Compounds and Methods for Treating Cancer and Diseases of the Central Nervous System” (QUEENS UNIVERSITY AT KINGSTON, priority 2007, published 2012).

Key:
[1] = system: HCT-116 colorectal carcinoma; test: Colorectal carcinoma model HCT-116 in SCID mice, tumor growth delay; format: in vivo, Mouse (Mus musculus); male SCID; settings: dosage of 60 mg/kg
Text: (§1) Control groups received the vehicle alone.

[2] = system: CD31-positive vessels in SKMEL-V+ tumors; test: CD31 immunohistochemistry / microvessel density of SKMEL-V+ tumors; format: in vivo, Mouse (Mus musculus), male SCID; settings: QC-56 particularly at 60 mg/kg
Method: Cell cultures were maintained in 5% CO2/95% air at 37° C. SKMEL-V (human melanoma cells). SKMEL-V cells were derived from SKMEL-24 cells (ATCC) by overexpression of mouse VEGF. […] Tumors were either snap frozen in liquid nitrogen or fixed in 10% buffered formalin and embedded in paraffin. […] BD PharMingen, San Diego, Calif.). […] Sections were rehydrated in PBS and then blocked with 5% normal goat serum for 1 h. The sections were then incubated overnight at 4° C. with CD31 antibody diluted 1:25 in 3% BSA-PBS. […] Paraffin-embedded material was used for Harris' hematoxylin. Microvessel density was quantified using a method described by Weidner et al ([…], and Folkman […]. Med, 1991; 324:1-8). Briefly, randomly vascularized areas were selected (hot spots) under 40× field and 100× fields. Then a 400× field was used to count microvessels in each of these areas. Single endothelial cells or clusters of endothelial cells with or without lumen were considered to be individual vessels. […] All slides were examined blindly with no prior knowledge of the treatment status.

[3] = format: in vivo; settings: QC-56 60 mg/kg ip, 4 cycles; chemotherapy drugs ip
Text: as §1

[4] = system: vascular smooth muscle cells (VSMC); settings: exposure of VSMC; cited from earlier work
[5] = system: B16-BL6 cells (mouse melanoma); test: Metastatic B16-BL6 melanoma model, lung surface metastases; format: in vivo; settings: vehicle control: 101
Method: B16-BL6 cells (mouse melanoma). B16-BL6 metastatic variant was derived from B16-F10. This cell variant was obtained from Dr. Linda D. Williams, Dept. of Cancer Biology, MD Anderson Cancer Center, Texas, USA. […] Cells were maintained at 37° C. in a humidified atmosphere (5% CO2, 95% air).
as §1

O=c1[nH]cc(F)c(=O)[nH]1 [5-FU, Fluorouracil, reference compound]
mortality [1]: induced mortality

CN(C)/N=N/c1[nH]cnc1C(N)=O [Dacarbazine, reference compound]
vessel count / tumor vascularization (CD31) [2]: minor effect

CC(=O)O[C@H]1C(=O)[C@@]2(C)[C@H]([C@H](OC(=O)c3ccccc3)[C@]3(O)C[C@H](OC(=O)[C@H](O)[C@@H](NC(=O)c4ccccc4)c4ccccc4)C(C)=C1C3(C)C)[C@]1(OC(C)=O)CO[C@@H]1C[C@@H]2O [Taxol™, paclitaxel, reference compound]
toxicity in the combination study [3]: induced some loss of body weights/mortality | HO-1 expression and activity [4]: dose and time dependent increase in HO-1 expression and activity

N.N.[Cl][Pt][Cl] [cisplatin, cis-diaminedichloroplatinum(II), reference compound]
macroscopic nodules in the lungs (average) [5]: 60 nodules
